This is an account of results in ChEMBL document CHEMBL1144613, “Substituted acyclic sulfonamides as human cannabinoid-1 receptor inverse agonists” (Bioorg Med Chem Lett, 2007).

For one series, the target named is Cannabinoid receptor 2 (Homo sapiens, UniProt P34972). Briefly: Displacement of [3H]CP-55940 from human recombinant CB2 receptor expressed in CHO cells. Type of series: cell-based. For orientation: Loss of bound radioactivity is the signal in a displacement assay; it reports binding, not function.
The target of series [1] is Cannabinoid receptor 1 (Homo sapiens, UniProt P21554). Briefly: biochemical. The format is cell-based, CHO.
Series [2] is described as follows: Brain concentration in rat at 1 mg/kg, iv at 0.25 h. Type of series: ADME, organism-based. Also noted: dose 1 mg/kg, route intravenous. Conditions: read-out: Activity.
Series [3] in a line: Brain concentration in rat at 1 mg/kg, iv at 1 h. Conditions: read-out: Activity. The format is ADME, organism-based. Also noted: dose 1 mg/kg, route intravenous.
A short description of series [4]: Volume of distribution at steady state in rat at 1 mg/kg, iv or 2 mg/kg, po. The format is ADME, organism-based. Conditions: in vivo, read-out: Vdss.
Series [5] can be described thus: Half life in rat at 1 mg/kg, iv or 2 mg/kg, po. Type of series: ADME, organism-based. To be noted: in vivo.
Series [6] can be described thus: Oral bioavailability in rat at 1 mg/kg, iv or 2 mg/kg, po. Type of series: ADME, organism-based. Conditions: in vivo.
Series [7] in a line: Plasma clearance in rat at 1 mg/kg, iv or 2 mg/kg, po. Type of series: ADME, organism-based.
The nature of series [8]: Cmax in rat at 1 mg/kg, iv or 2 mg/kg, po. The format is ADME, organism-based. To be noted: in vivo.
Series [9] is described as follows: Plasma concentration in rat at 1 mg/kg, iv at 0.25 h. Type of series: ADME, organism-based. The arrangement: dose 1 mg/kg, route intravenous.
Series [10] in a line: Plasma concentration in rat at 1 mg/kg, iv at 1 h. Type of series: ADME, organism-based. The arrangement: dose 1 mg/kg, route intravenous.
Series [11] in a line: Plasma concentration in rat at 1 mg/kg, iv at 2 hrs. Also noted: dose 1 mg/kg, route intravenous. Type of series: ADME, organism-based.
Series [12] is described as follows: Brain concentration in rat at 1 mg/kg, iv at 2 hrs. Type of series: ADME, organism-based. Also noted: dose 1 mg/kg, route intravenous. To be noted: read-out: Activity.
A short description of series [13]: Ratio of drug level in brain to plasma in rat at 1 mg/kg, iv at 0.25 h. The format is ADME, organism-based. Also noted: dose 1 mg/kg, route intravenous.
Series [14] can be described thus: Ratio of drug level in brain to plasma in rat at 1 mg/kg, iv at 1 h. The format is ADME, organism-based. Also noted: dose 1 mg/kg, route intravenous.
The nature of series [15]: Ratio of drug level in brain to plasma in rat at 1 mg/kg, iv at 2 hrs. Type of series: ADME, organism-based. The arrangement: dose 1 mg/kg, route intravenous.
Another series relates to Rattus norvegicus. Kind of series: Inhibition of CP-55940-induced hypothermia in rat at 3 mg/kg, iv after 30 mins. The format is functional. Conditions: 0.5 h.
In series [16] the target is Cannabinoid receptor 1 (Rattus norvegicus, UniProt P20272). Briefly: Binding affinity at rat CB1 receptor.

Bounds are passed on as bounds.

Sequence of Cannabinoid receptor 2 (P34972 whole entry): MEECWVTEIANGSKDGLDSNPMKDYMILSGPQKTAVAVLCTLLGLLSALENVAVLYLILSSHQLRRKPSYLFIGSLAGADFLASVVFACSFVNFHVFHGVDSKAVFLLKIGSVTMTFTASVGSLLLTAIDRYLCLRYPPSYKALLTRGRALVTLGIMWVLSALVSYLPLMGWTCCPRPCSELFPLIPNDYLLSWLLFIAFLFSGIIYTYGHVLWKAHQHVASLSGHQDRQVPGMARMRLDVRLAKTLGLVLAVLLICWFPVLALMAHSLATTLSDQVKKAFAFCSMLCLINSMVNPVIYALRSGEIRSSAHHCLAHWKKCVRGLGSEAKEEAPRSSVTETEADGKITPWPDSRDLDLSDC
Sequence of Cannabinoid receptor 1 (Homo sapiens, UniProt P21554) (P21554 whole entry): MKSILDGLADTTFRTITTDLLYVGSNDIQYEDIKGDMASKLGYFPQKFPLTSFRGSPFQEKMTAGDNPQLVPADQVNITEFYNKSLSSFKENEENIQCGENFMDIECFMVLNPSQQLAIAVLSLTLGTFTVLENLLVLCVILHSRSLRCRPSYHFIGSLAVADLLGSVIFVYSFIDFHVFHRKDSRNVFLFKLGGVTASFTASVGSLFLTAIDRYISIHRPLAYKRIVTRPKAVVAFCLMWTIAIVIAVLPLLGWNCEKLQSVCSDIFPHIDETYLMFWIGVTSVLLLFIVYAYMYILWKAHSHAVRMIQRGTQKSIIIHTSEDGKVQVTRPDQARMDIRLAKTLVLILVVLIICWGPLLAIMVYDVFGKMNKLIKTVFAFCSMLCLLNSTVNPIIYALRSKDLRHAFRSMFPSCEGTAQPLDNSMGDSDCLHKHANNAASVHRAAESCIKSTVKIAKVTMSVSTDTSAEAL
Sequence of Cannabinoid receptor 1 (Rattus norvegicus, UniProt P20272) (P20272 whole entry): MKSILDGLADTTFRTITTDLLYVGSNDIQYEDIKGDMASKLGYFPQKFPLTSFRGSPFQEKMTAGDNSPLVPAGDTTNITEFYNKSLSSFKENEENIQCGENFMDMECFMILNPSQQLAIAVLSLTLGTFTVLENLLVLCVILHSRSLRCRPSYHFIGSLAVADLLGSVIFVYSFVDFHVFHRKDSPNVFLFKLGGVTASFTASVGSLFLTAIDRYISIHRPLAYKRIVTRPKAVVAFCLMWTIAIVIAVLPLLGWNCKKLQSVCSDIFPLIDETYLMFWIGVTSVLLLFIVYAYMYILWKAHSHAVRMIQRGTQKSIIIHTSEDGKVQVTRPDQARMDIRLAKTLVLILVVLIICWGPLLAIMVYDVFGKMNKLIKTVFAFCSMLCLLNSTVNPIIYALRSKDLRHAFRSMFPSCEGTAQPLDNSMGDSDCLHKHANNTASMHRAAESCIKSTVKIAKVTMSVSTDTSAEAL

In the case of `C[C@H](NS(=O)(=O)c1cccc(Cl)c1Cl)[C@@H](Cc1ccc(Cl)cc1)c1cccc(C#N)c1`, the results for the IC50 at Cannabinoid receptor 2 and against Cannabinoid receptor 1 [1] were 202 nM and 10.7 nM, respectively.

In the case of `C[C@@H]([C@@H](Cc1ccc(Cl)cc1)c1cccc(C#N)c1)N(C)S(C)(=O)=O`, the half-inhibitory concentration (IC50) at Cannabinoid receptor 2 and against Cannabinoid receptor 1 [1] was more than 2000 nM each time.

As for `C[C@H](NC(=O)c1cc(Cl)cc(Cl)c1)[C@@H](Cc1ccc(Cl)cc1)c1cccc(C#N)c1`, the IC50 (usually the concentration that inhibits the measured activity by half) on Cannabinoid receptor 2 came to 181 nM; on Cannabinoid receptor 1 [1] it was 282 nM.

With `CCCCS(=O)(=O)N[C@@H](C)[C@@H](Cc1ccc(Cl)cc1)c1cccc(C#N)c1`, the concentration for half-maximal inhibition (IC50) is 1440 nM on Cannabinoid receptor 2 and 75.2 nM against Cannabinoid receptor 1 [1].

Regarding `C[C@H](NS(=O)(=O)C(C)(C)C)[C@@H](Cc1ccc(Cl)cc1)c1cccc(C#N)c1`, the IC50 is more than 2000 nM on Cannabinoid receptor 2 and 1680 nM against Cannabinoid receptor 1 [1].

For `C[C@H](NC(=O)c1c(Cl)cccc1Cl)[C@@H](Cc1ccc(Cl)cc1)c1cccc(C#N)c1`, the figures for the IC50 at Cannabinoid receptor 2 and at Cannabinoid receptor 1 [1] were 945 nM and 37.2 nM, respectively.

As for `C[C@H](NC(=O)Cc1ccccc1)[C@@H](Cc1ccc(Cl)cc1)c1cccc(C#N)c1`, the IC50 is more than 2000 nM at Cannabinoid receptor 2 and 44.1 nM at Cannabinoid receptor 1 [1].

On to `C[C@H](NS(=O)(=O)c1c(Cl)cccc1Cl)[C@@H](Cc1ccc(Cl)cc1)c1cccc(C#N)c1`, for which the IC50 stood at 283 nM at Cannabinoid receptor 2 and 29.8 nM against Cannabinoid receptor 1 [1].

For `C[C@H](NS(=O)(=O)c1cc(Cl)cc(Cl)c1)[C@@H](Cc1ccc(Cl)cc1)c1cccc(C#N)c1`, the IC50 amounted to 998 nM at Cannabinoid receptor 2 and 11.4 nM at Cannabinoid receptor 1 [1].

Consider `C[C@@H]([C@@H](Cc1ccc(Cl)cc1)c1cccc(C#N)c1)N(C)S(=O)(=O)c1cc(Cl)cc(Cl)c1`, for which the IC50 on Cannabinoid receptor 2 and against Cannabinoid receptor 1 [1] was more than 2000 nM in each case.

As to `C[C@H](NS(=O)(=O)c1ccccc1Cl)[C@@H](Cc1ccc(Cl)cc1)c1cccc(C#N)c1`, the IC50 on Cannabinoid receptor 2 worked out at 668 nM; on Cannabinoid receptor 1 [1], 12.3 nM.

Take `C[C@H](NS(=O)(=O)c1cc(C(F)(F)F)cc(C(F)(F)F)c1)[C@@H](Cc1ccc(Cl)cc1)c1cccc(C#N)c1`: the IC50 on Cannabinoid receptor 2 was determined as 1760 nM; against Cannabinoid receptor 1 [1], 3.2 nM.

For the compound `C[C@H](NS(=O)(=O)c1cc(F)cc(F)c1)[C@@H](Cc1ccc(Cl)cc1)c1cccc(C#N)c1`, the IC50 turned out to be 1080 nM on Cannabinoid receptor 2 and 5.1 nM against Cannabinoid receptor 1 [1].

In the case of `C[C@H](NS(=O)(=O)c1cccc(-c2ccccc2)c1)[C@@H](Cc1ccc(Cl)cc1)c1cccc(C#N)c1`, the concentration at 0.25 h in [2] was found to be 146 nM; in series [9], 220 nM. The concentration at 1 h was 92 nM in series [3] and 113 nM in series [10]. The Vd in [4] worked out at 6.9 L/kg. The half-life (commonly the time in which the quantity being followed falls by half) in [5] was 8.4 h. Also, the bioavailability – broadly, dose-corrected exposure relative to a reference, in per cent – in series [6] amounted to 48%. The clearance in series [7] came to 10.6 mL/min/kg. The IC50 at Cannabinoid receptor 2 amounted to 394 nM; against Cannabinoid receptor 1 [1], 2.8 nM; at Cannabinoid receptor 1 [16], 2.3 nM. Moreover, the concentration in series [8] peaked (Cmax) at 343 nM. For the same compound, the concentration at 2 h in series [11] and in series [12] was 54 nM throughout. In [13], the Kp (in general, tissue or fluid exposure divided by exposure in the circulation) at 0.25 h is 0.66. For the same compound, the Kp at 1 h in series [14] amounted to 0.82. Besides, the Kp at 2 h in series [15] was determined as 1. Also, at 3 mg/kg the inhibition in vivo with Rattus norvegicus was 48.9%.

Regarding `C[C@H](NS(=O)(=O)c1cccc(Cl)c1)[C@@H](Cc1ccc(Cl)cc1)c1cccc(C#N)c1`, the figures for the IC50 at Cannabinoid receptor 2 and against Cannabinoid receptor 1 [1] were 808 nM and 13.9 nM, respectively.

As for `C[C@H](NS(=O)(=O)c1ccc(-c2ccccc2)cc1)[C@@H](Cc1ccc(Cl)cc1)c1cccc(C#N)c1`, the IC50 at Cannabinoid receptor 2 was 406 nM; at Cannabinoid receptor 1 [1], 23 nM.

On to `C[C@H](NS(=O)(=O)c1cccc2ccccc12)[C@@H](Cc1ccc(Cl)cc1)c1cccc(C#N)c1`, for which the IC50 came to 1120 nM on Cannabinoid receptor 2 and 21.1 nM against Cannabinoid receptor 1 [1].

As for `C[C@H](NS(=O)(=O)c1ccc(Cl)cc1Cl)[C@@H](Cc1ccc(Cl)cc1)c1cccc(C#N)c1`, the IC50 was determined as 301 nM on Cannabinoid receptor 2 and 7.1 nM at Cannabinoid receptor 1 [1].

`C[C@H](NS(=O)(=O)Cc1ccccc1)[C@@H](Cc1ccc(Cl)cc1)c1cccc(C#N)c1`: the figures for the IC50 on Cannabinoid receptor 2 and on Cannabinoid receptor 1 [1] were more than 2000 nM and 20.9 nM, respectively.

`C[C@H](NS(=O)(=O)Cc1ccccc1Cl)[C@@H](Cc1ccc(Cl)cc1)c1cccc(C#N)c1`: the figures for the IC50 at Cannabinoid receptor 2 and on Cannabinoid receptor 1 [1] were 1920 nM and 16 nM, respectively.

On to `C[C@H](NS(=O)(=O)Cc1ccc(Cl)cc1)[C@@H](Cc1ccc(Cl)cc1)c1cccc(C#N)c1`, for which the results for the half-maximal inhibitory concentration (IC50) on Cannabinoid receptor 2 and against Cannabinoid receptor 1 [1] were 1760 nM and 15.4 nM, respectively.

In the case of `C[C@H](NS(=O)(=O)CCc1ccccc1)[C@@H](Cc1ccc(Cl)cc1)c1cccc(C#N)c1`, the results for the IC50 on Cannabinoid receptor 2 and against Cannabinoid receptor 1 [1] were 904 nM and 19.3 nM, respectively.

`C[C@H](NC(=O)CCc1ccccc1)[C@@H](Cc1ccc(Cl)cc1)c1cccc(C#N)c1`: the IC50 at Cannabinoid receptor 2 stood at 1370 nM; against Cannabinoid receptor 1 [1], 38.3 nM.

On to `C[C@H](NS(=O)(=O)/C=C/c1ccccc1)[C@@H](Cc1ccc(Cl)cc1)c1cccc(C#N)c1`, for which the IC50 on Cannabinoid receptor 2 worked out at 1080 nM; against Cannabinoid receptor 1 [1], 41.8 nM.

On to `C[C@H](NC(=O)c1ccccc1)[C@@H](Cc1ccc(Cl)cc1)c1cccc(C#N)c1`, for which the values for the IC50 at Cannabinoid receptor 2 and against Cannabinoid receptor 1 [1] were 1910 nM and 845 nM, respectively.

Consider `C[C@H](NS(=O)(=O)c1cc(Cl)ccc1Cl)[C@@H](Cc1ccc(Cl)cc1)c1cccc(C#N)c1`, for which the IC50 was 498 nM on Cannabinoid receptor 2 and 7.4 nM at Cannabinoid receptor 1 [1].

With `C[C@H](NS(=O)(=O)c1ccc2ccccc2c1)[C@@H](Cc1ccc(Cl)cc1)c1cccc(C#N)c1`, the IC50 amounted to 1090 nM at Cannabinoid receptor 2 and 15 nM against Cannabinoid receptor 1 [1].

Turning to `C[C@H](NS(=O)(=O)Cc1cccc(Cl)c1)[C@@H](Cc1ccc(Cl)cc1)c1cccc(C#N)c1`, the IC50 was 2000 nM at Cannabinoid receptor 2 and 53.5 nM against Cannabinoid receptor 1 [1].

As for `C[C@H](NS(=O)(=O)c1cc(Cl)c(Cl)cc1Cl)[C@@H](Cc1ccc(Cl)cc1)c1cccc(C#N)c1`, the concentration for half-maximal inhibition (IC50) stood at 622 nM at Cannabinoid receptor 2 and 16 nM at Cannabinoid receptor 1 [1].

As to `C[C@H](NS(=O)(=O)c1ccccc1)[C@@H](Cc1ccc(Cl)cc1)c1cccc(C#N)c1`, the figures for the IC50 at Cannabinoid receptor 2 and on Cannabinoid receptor 1 [1] were 1490 nM and 9.7 nM, respectively.

On to `C[C@H](NS(=O)(=O)c1ccc(Cl)cc1)[C@@H](Cc1ccc(Cl)cc1)c1cccc(C#N)c1`, for which the figures for the IC50 at Cannabinoid receptor 2 and against Cannabinoid receptor 1 [1] were 454 nM and 21.7 nM, respectively.

As to `C[C@H](NS(C)(=O)=O)[C@@H](Cc1ccc(Cl)cc1)c1cccc(C#N)c1`, the IC50 on Cannabinoid receptor 2 and against Cannabinoid receptor 1 [1] was more than 2000 nM throughout.

Consider `Cc1c(C(=O)NN2CCCCC2)nn(-c2ccc(Cl)cc2Cl)c1-c1ccc(Cl)cc1` [RIMONABANT], for which the inhibition in vivo – broadly, how much of the control response was suppressed – at 3 mg/kg in the series with Rattus norvegicus is 97.9%.
